Patent US7087729B1, “Peptide conjugates for the stabilization of membrane proteins and interactions with biological membranes” (University Health Network, priority 1999, dated 2006)
Square brackets hold non-standard residues; d marks the D form. Peptide text beside a SMILES is read from it. * marks the point of attachment. X1 = CCCCCCCCCCCCCCCCCCCCCCCCCCCC(=O)*; Orn = NCCC[C@H](N)C(=O)O

Columns and labels:
[1] = cited from earlier work
[2] = biological target: T1, bacteriorhodopsin (Halobacterium salinarum, UniProt P02945); experiment: Stabilization of detergent-solubilized bacteriorhodopsin after exchange of OG for LPD; absorption spectrum of supernatant during storage; parameters: species or system Halobacterium salinarium; conditions: stored in the dark at room temperature, spectra at 1 to 32 days, supernatant after 100,000xg
T1 construct: Purple membranes were isolated by overlaying 12.5 mL of the membrane suspension on a 40%/60% (10 mL/7.5 mL) sucrose gradient; made in house; host or cells: Halobacterium salinarium (strain a gift of J. Lanyi); protein isolated from purple membranes of the natural producer
T1 sequence (P02945 14-261 limits assumed): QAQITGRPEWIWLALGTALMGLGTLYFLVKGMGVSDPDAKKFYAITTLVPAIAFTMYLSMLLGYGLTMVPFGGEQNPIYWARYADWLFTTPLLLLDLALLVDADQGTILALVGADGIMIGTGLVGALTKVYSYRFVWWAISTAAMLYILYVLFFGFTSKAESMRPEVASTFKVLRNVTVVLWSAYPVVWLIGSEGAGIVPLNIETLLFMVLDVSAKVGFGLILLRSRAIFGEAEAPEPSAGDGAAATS
Method: The purple membranes were homogenized in 25 mM sodium phosphate, pH 6.9 with 1.5% OG (Anatrace, Maumee, Ohio) and mixed for 36 hours in the dark. After adjusting the pH to 5.5 with 0.1 N HCl, the solution was spun at 200,000×g for 45 minutes to obtain the soluble bacterioprhodopsin (BR) in the supernatant. The protein was concentrated to 5 mg/mL by ultrafiltration with an Amicon PM 10 membrane. BR was further purified from this solution by chromatography on a Superdex 75 gel filtration column in 25 mM sodium phosphate, pH 5.5, 1.2% (w/v) OG, at a flow rate of 1 mL/min.
Typically, the initial concentration of OG in the purified BR sample was approximately 50 mM, which is roughly twice the critical micelle concentration for this detergent.

[3] = Solubility of lipopeptide detergents in water; format: physicochemical
Method: The LPDs with chain lengths from 10 to 16 carbons are soluble in water to over 10 mM, and the LPDs with chain lengths from 18 to 24 carbons are soluble to over 1 mM. […] As a control, a reference molecule known as C-0 is made with the same peptide scaffold, but without the coupled lipids. […] Every batch of peptide is analyzed by MS to confirm the synthesis.

| Structure (SMILES) | solubility in water [1] | preservation of the native bacteriorhodopsin absorption spectrum over storage time [2] | preservation of the native bacteriorhodopsin absorption spectrum over storage time ([2]; listed as octyl glucoside (OG)) | solubility in water (in words) [3] |
| --- | --- | --- | --- | --- |
| CCCCCCCCO[C@@H]1O[C@H](CO)[C@@H](O)[C@H](O)[C@H]1O [OG, octyl β-D-glucopyranoside] | greater than 20 % (w/v) | lost the characteristic spectum for native bacteriorhodopsin within a few days | loss of the native conformation of the protein over time | – |
| CCCCCCCCCCO[C@@H]1O[C@H](CO)[C@@H](O)[C@H](O)[C@H]1O [decyl glucoside] | 0.1 % (w/v) | – | – | – |
| CCCCCCCCCCCCCCCCCCCCCCCCCCCC(=O)NCCC[C@H](NC(=O)[C@H](C)NC(=O)[C@H](CCCCN)NC(=O)[C@H](C)NC(=O)[C@H](C)NC(=O)[C@H](CCCCN)NC(=O)[C@H](CCC(=O)O)NC(=O)[C@H](C)NC(=O)[C@H](C)NC(=O)[C@H](CCC(=O)O)NC(=O)[C@H](C)NC(=O)[C@H](C)NC(=O)[C@H](Cc1ccc(O)cc1)NC(=O)[C@H](CCCCN)NC(=O)[C@H](C)NC(=O)[C@H](C)NC(=O)[C@H](CCCCN)NC(=O)[C@H](CCC(=O)O)NC(=O)[C@H](C)NC(=O)[C@H](C)NC(=O)[C@H](CCC(=O)O)NC(=O)[C@H](C)NC(=O)[C@H](CCCNC(=O)CCCCCCCCCCCCCCCCCCCCCCCCCCC)NC(=O)[C@H](C)NC(C)=O)C(=O)N[C@@H](C)C(N)=O [LPD-28] (Ac-A[Orn](X1)AEAAEKAAKYAAEAAEKAAKA[Orn](X1)A-NH2) | – | – | – | poorly soluble in water |
| CCCCCCCCCCCCO[C@@H]1O[C@H](CO)[C@@H](O)[C@H](O)[C@H]1O [dodecyl glucoside] | 0.008 % (w/v) | – | – | – |
